Assays:
[1] = test system: S. aureus TISTR 517; assay: Agar well diffusion, antibacterial spectrum; type: cell-based, Staphylococcus aureus
Protocol: (§1) The active isolates from the agar overlay assay were transferred into broth media identical to that used during the initial isolation. The cultures were incubated at 30 °C with shaking at 150 rpm for 18 h. The optical density of the starter culture was adjusted to a turbidity of 0.1 OD at 625 nm using a 0.85% sterile NaCl solution before transferring 1 mL of the culture into 49 mL of fresh broth. The inoculum was then incubated at 30 °C with shaking at 150 rpm for 24 h. The CFS was obtained by centrifugation at 10,000× g at 4 °C for 15 min and filtered through a 0.2 µm sterile cellulose acetate syringe filter. The antibacterial activity of the CFS derived from each isolate was investigated using P. aeruginosa TISTR 357, K. pneumoniae TISTR 1383, E. coli TISTR 887, S. typhimurium TISTR 1469, V. parahaemolyticus TISTR 1596, and S. aureus TISTR 517 from the Thailand Institute of Scientific and Technological Research (TISTR), Thailand. The antibiotic-resistant strain, MRSA strain 2468, was kindly provided by the medical technology laboratory at the School of the Allied Health Sciences, Walailak University, Thailand. The microbial indicators were incubated at 37 °C for 18 h on MH agar. […] The experiment was conducted in triplicate, and the mean ± SD of the diameters of the inhibition zones was measured.

[2] = test system: V. parahaemolyticus TISTR 1596; assay: Agar well diffusion, antibacterial spectrum; type: cell-based, Vibrio parahaemolyticus
Protocol: as §1

[3] = test system: MRSA Strain 2468; assay: Agar well diffusion, antibacterial spectrum; type: cell-based, methicillin-resistant Staphylococcus aureus
Protocol: as §1

[4] = test system: E. coli TISTR 887; assay: Agar well diffusion, antibacterial spectrum; type: cell-based, Escherichia coli
Protocol: as §1

[5] = test system: P. aeruginosa TISTR 357; assay: Agar well diffusion, antibacterial spectrum; type: cell-based, Pseudomonas aeruginosa
Protocol: as §1

[6] = test system: S. typhimurium TISTR 1469; assay: Agar well diffusion, antibacterial spectrum; type: cell-based, Salmonella typhimurium
Protocol: as §1

[7] = test system: K. pneumoniae TISTR 1383; assay: Agar well diffusion, antibacterial spectrum; type: cell-based, Klebsiella pneumoniae
Protocol: as §1

[8] = test system: P. aeruginosa TISTR 357; assay: Compatibility with surfactants, residual antibacterial activity; type: physicochemical, Pseudomonas aeruginosa; details: no AMP (same value in 1 h, 6 h and 12 h), agar well diffusion, % of non-treated AMP, mean ± SD, n = 3
Protocol: The AMP was dissolved in sterile purified water and adjusted a final concentration to 16 µg/mL. The sensitivity of the AMP to temperatures of 37, 40, 50, 60, 80, and 100 °C, as well as autoclaving at 121 °C for 15 and 30 min was evaluated. The sensitivity of the AMP to proteolytic enzymes with different digesting characteristics was studied by incubating with a concentration of 1 mg/mL of proteinase K, trypsin, and α-chymotrypsin (Sigma-Aldrich, Warren, MI, USA). The compatibility of the AMP with surfactants was evaluated by exposing the AMP to 1% SDS or 1% Triton X-100 (AppliChem GmbH, Darmstadt, Germany). The degradation of the AMP under various pH conditions, including physiological and extended alkaline conditions, was evaluated by adjusting the pH of the solution to 1.2, 4.5, 6.8, 7.4, 8.0, 10.0, 12.0, and 14.0. After incubation, the pH of the AMP solution was neutralized to the original pH before being assessed for antibacterial activity. The antibacterial assay against P. aeruginosa TISTR 357 was conducted using the agar well diffusion assay in triplicate. The stability profiles are presented as the percentage of the residual activity compared with the non-treatment conditions (mean ± SD), and statistical significance was determined by the Student’s t-test at a p-value < 0.05.

[9] = test system: K. pneumoniae TISTR 1383; type: cell-based, Klebsiella pneumoniae; details: 37 °C 24 h, triplicate
Protocol: (§2) The MIC and MBC of the purified AMP were determined using the broth microdilution method following the guidance provided by the Clinical and Laboratory Standards Institute (CLSI). P. aeruginosa TISTR 357 and K. pneumoniae TISTR 1383 were cultured on MH agar and incubated at 37 °C for 18 h. A single colony of the tested bacteria was suspended in 0.85% NaCl until the suspension turbidity reached an OD of 0.1 at 625 nm. The cells were then diluted to 5 × 10^6 CFU/mL using cation-adjusted Mueller Hinton broth (CAMHB). The diluted cell suspension of 10 µL was transferred into each well of a 96-well plate with a final volume of 100 µL per well. The AMP was added to achieve final concentrations ranging from 0.125 to 64 µg/mL. Colistin was used as the positive control, while antibiotic-free samples were used as negative controls. The 96-well plate was incubated at 37 °C for 24 h. Each strain was tested in triplicate. […] Subsequently, 100 µL of each dilution was spread on MH agar and then incubated at 37 °C for 24 h. The MBC was identified as the lowest concentration at which no bacterial colony growth was observed on the agar plate.

[10] = test system: P. aeruginosa TISTR 357; type: cell-based, Pseudomonas aeruginosa; details: 37 °C 24 h, triplicate
Protocol: as §2

[11] = cited from earlier work
From the text: The AMP of Paenibacillus thiaminolyticus NNS5-6 was sensitive to proteinase K and trypsin, confirming its proteinaceous nature. […] The AMP was also stable across a wide pH range (pH 4.5–10) compared with extremely acidic and alkaline environments. This information could help inform temperature conditions and buffer choices during purification and guide the formulation development of drug delivery systems for suitable administration routes.

[12] = agar well diffusion on MH agar, 9 mm wells, 37 °C 18 h, CFS 100 µL, vancomycin 30 µg, colistin 1 µg, mean ± SD, n = 3
[13] = plated on MH agar after microdilution

## CN[C@H](CC(C)C)C(=O)N[C@H]1C(=O)N[C@@H](CC(N)=O)C(=O)N[C@H]2C(=O)N[C@H]3C(=O)N[C@H](C(=O)N[C@H](C(=O)O)c4cc(O)cc(O)c4-c4cc3ccc4O)[C@H](O)c3ccc(c(Cl)c3)Oc3cc2cc(c3O[C@@H]2O[C@H](CO)[C@@H](O)[C@H](O)[C@H]2O[C@H]2C[C@](C)(N)[C@H](O)[C@H](C)O2)Oc2ccc(cc2Cl)[C@H]1O [Vancomycin]
[1]; Staphylococcus aureus, TISTR517, 18 h
  zone of inhibition at 30 µg/disc: 21.6 ± 0.51 mm
[2]; Vibrio parahaemolyticus, TISTR1596, 18 h
  zone of inhibition at 30 µg/disc: 0 mm
[3]; Staphylococcus aureus, MRSA, 18 h
  zone of inhibition at 30 µg/disc: 21.8 ± 0.78 mm
[4]; Escherichia coli, TISTR887, 18 h
  zone of inhibition at 30 µg/disc: 0 mm
[5]; Pseudomonas aeruginosa, TISTR357, 18 h
  zone of inhibition at 30 µg/disc: 0 mm
[6]; Salmonella enterica, 18 h
  zone of inhibition at 30 µg/disc: 0 mm
[7]; Klebsiella pneumoniae, TISTR1383, 18 h
  zone of inhibition at 30 µg/disc: 0 mm

## CCCCCCCCCCCCOS(=O)(=O)[O-].[Na+] [SDS, reference compound]
[8]; 1% SDS alone
  antibacterial activity of surfactant alone against P. aeruginosa TISTR 357, given as % residual activity: 121.76 ± 2.42 %

## Triton X-100 [reference compound]
[8]; 1% Triton X-100 alone
  antibacterial activity of surfactant alone against P. aeruginosa TISTR 357, given as % residual activity: 126.83 ± 2.72 %

## Colistin
[1]; [12]
  Zone of Inhibition: 0.00 ± 0.00 mm
[2]; [12]
  Zone of Inhibition: 18.8 ± 0.76 mm
[3]; [12]
  Zone of Inhibition: 0.00 ± 0.00 mm
[4]; [12]
  Zone of Inhibition: 18.13 ± 0.88 mm
[5]; [12]
  Zone of Inhibition: 18.05 ± 0.67 mm
[6]; [12]
  Zone of Inhibition: 20.4 ± 0.89 mm
[9]; broth microdilution, CAMHB
  MIC: 1 µg/mL
[9]; [13]
  MBC: 1 µg/mL
[7]; [12]
  Zone of Inhibition: 18.81 ± 0.39 mm
[10]; broth microdilution, CAMHB
  MIC: 1 µg/mL
[10]; [13]
  MBC: 1 µg/mL

## fusaricidin A
[11]
  sensitivity to protease treatment: insensitive to protease treatment
[11]; fusaricidin A produced by Paenibacillus bovis sp. nov BD3526
  pH range over which antimicrobial activity is retained: 2.0 to 9.0
